Reference: patent US12702648B2 (priority 2023, dated 2026)
≈ marks a conversion by molar mass, not a printed value.

Key:
Type in all cases: cell-based
[1] = test system: C. albicans (ATCC 10231); assay: In vitro antifungal activity (MIC, dilution method); settings: 5×10^6 cells/mL, 24 h at 25° C.
Description: In vitro antifungal activity: In order to study the influence of encapsulation of AmB in TDs on the antifungal activity of the drug, the minimal inhibitory concentration (MIC), defined as the lowest concentration inhibiting clearly visible growth of the fungi, was determined by dilution method. The antifungal agents were tested at AmB final concentration range of 0.0125-5 μg/mL. The testing was performed in 96-well plates. Cell suspensions of C. albicans were prepared in Sabouraud's broth and adjusted to a final concentration of 5×10^6 cells/mL (fungal count determined by microscopic counts on a hemocytometer). The 96-well plate was incubated for 24 h at 25° C. and record the lowest concentration of AmB that prevented visible growth of C. albicans.

[2] = test system: murine macrophage-like RAW 264.7 cells; assay: In vitro cytotoxicity test (MTS), RAW 264.7; settings: 72 h incubation, AmB concentration
Description: (§1) In vitro cytotoxicity test: The cytotoxicity of TDs and AmB loaded nanoparticles (NPs) were studied using murine macrophage-like RAW 264.7 cells and human kidney 293T cells via MTS assays. Briefly, cells were seeded in 96-well plates at a density of 6×10^3 (RAW 264.7) and 3×10^3 (293T) cells per well and incubated overnight (Dulbecco's modified Eagle's medium (DMEM) medium, 5% CO2, 37° C.). TDs or AmB nanoformulations with different concentrations were added into each well to treat the cells. After 72 h incubation, CellTiter 96 AQueous MTS reagent was added to each well according to the manufacturer's instructions. The cell viability was determined by measuring the absorbance at 490 nm using a microplate reader (BioTek Synergy H1) with the untreated cells as negative controls. Results were obtained as the average cell viability of triplicate experiments calculated by a formula of [(ODtreat−ODblank)/(ODcontrol−ODblank)×100%]. Statistical analysis: Statistical analysis was carried out using GraphPad Prism (GraphPad Software, California, USA). One-way analyses of variance (ANOVA) was used for two-group and multiple-group analyses. […] The half maximal inhibitory concentration (IC50) was calculated by nonlinear regression analysis ([Inhibitor] vs. response—Variable slope (four parameters)). The half-life was determined by nonlinear regression analysis (one-phase association).

[3] = test system: human kidney 293T cells; assay: In vitro cytotoxicity test (MTS), 293T; settings: 72 h incubation, AmB concentration
Description: as §1

Structure (SMILES): C[C@@H]1[C@H](O)[C@@H](C)/C=C/C=C/C=C/C=C/C=C/C=C/C=C/[C@H](O[C@@H]2O[C@H](C)[C@@H](O)[C@H](N)[C@@H]2O)C[C@@H]2O[C@](O)(C[C@@H](O)C[C@@H](O)[C@H](O)CC[C@@H](O)C[C@@H](O)CC(=O)O[C@H]1C)C[C@H](O)[C@H]2C(=O)O [free AmB, Amphotericin B]
- MIC (minimum inhibitory concentration) [1]: 0.05 µg/mL (≈ 0.0541 µM)
- IC50 (cytotoxicity) to RAW 264.7 [2]: 1.8 µg/mL
- IC50 (cytotoxicity) to 293T [3]: 4.3 µg/mL
